≈ marks a conversion by molar mass, not a printed value.
How the values were obtained:
[1] = system: Mycobacterium tuberculosis; test: Antimycobacterial activity against Mycobacterium tuberculosis H37Rv in 7H9/ADC/Tween medium measured at day 14 by Alamar Blue assay; type: functional; details: 336 h
[2] = Kinetic solubility of the compound at pH 7.4 after 2 hrs by shake flask method-based HPLC-DAD analysis; type: physicochemical; details: buffer, read-out: Kinetic_solubility
[3] = Metabolic stability in mouse liver microsomes assessed as compound remaining at 0.1 uM measured at 30 mins by LC-MS/MS analysis; type: ADME; details: read-out: Stability
[4] = Metabolic stability in rat liver microsomes assessed as compound remaining at 0.1 uM measured at 30 mins by LC-MS/MS analysis; type: ADME; details: read-out: Stability
[5] = system: Mycobacterium tuberculosis; test: Antimycobacterial activity against Mycobacterium tuberculosis H37Rv in GAST medium with low Fe level measured at day 14 by Alamar Blue assay; type: functional; details: 336 h
[6] = Metabolic stability in human liver microsomes assessed as compound remaining at 0.1 uM measured at 30 mins by LC-MS/MS analysis; type: ADME; details: read-out: Stability
[7] = system: Mycobacterium tuberculosis; test: Antimycobacterial activity against Mycobacterium tuberculosis H37Rv in GAST-Fe medium measured at day 14 by Alamar Blue assay; type: functional; details: 336 h
CHO = test: Cytotoxicity against CHO cells assessed as cell viability by MTT assay; type: cell-based; details: Cricetulus griseus

| Compound | MIC99 [1] [µM] | solubility kinetic at 2 h [2] [µM] | other results |
| --- | --- | --- | --- |
| Cc1cc(NCc2ccccn2)n2ncc(-c3ccc(Cl)cc3)c2n1 | 10 (≈ 3.5 µg/mL) | < 5 | – |
| Cc1cc(NCc2ccccn2)n2ncc(-c3ccccc3)c2n1 | 10 (≈ 3.15 µg/mL) | < 5 | – |
| Cc1cc(NCc2ccccn2)n2nc(C)c(-c3ccccc3)c2n1 | 5 (≈ 1.65 µg/mL) | < 5 | remaining at 0.5 h, 0.1 µM [3]: 6.2%; remaining at 0.5 h, 0.1 µM [4]: 39%; MIC99 [5]: > 160 µM; remaining at 0.5 h, 0.1 µM [6]: 51.9%; MIC99 [7]: > 160 µM; IC50 (CHO): 34 µM |
| Cc1cc(NCc2ccccn2)n2ncc(-c3ccc(F)cc3)c2n1 | 5 (≈ 1.67 µg/mL) | < 5 | – |
| Cc1cc(NCc2cccnc2)n2nc(C)c(-c3ccccc3)c2n1 | > 160 | 110 (≈ 36.3 µg/mL) | – |
| Cc1cc(NCc2ccncc2)n2nc(C)c(-c3ccccc3)c2n1 | > 160 | 134 (≈ 44 µg/mL) | – |
| Cc1cc(NCc2ncccn2)n2nc(C)c(-c3ccccc3)c2n1 | 80 (≈ 26.4 µg/mL) | 37.9 (≈ 12.5 µg/mL) | – |
| Cc1cc(NCc2cnccn2)n2nc(C)c(-c3ccccc3)c2n1 | 80 (≈ 26.4 µg/mL) | 7.1 (≈ 2.35 µg/mL) | – |
| Cc1cc(NCCc2ccccn2)n2nc(C)c(-c3ccccc3)c2n1 | > 160 | < 5 | – |
| Cc1cc(NCCCc2ccccn2)n2nc(C)c(-c3ccccc3)c2n1 | 80 (≈ 28.6 µg/mL) | 5.9 (≈ 2.11 µg/mL) | – |
| Cc1cc(Nc2ccccn2)n2nc(C)c(-c3ccccc3)c2n1 | > 160 | < 5 | – |
| Cc1cc(N(C)Cc2ccccn2)n2nc(C)c(-c3ccccc3)c2n1 | > 160 | 17.5 (≈ 6.01 µg/mL) | – |
| Cc1cc(OCc2ccccn2)n2nc(C)c(-c3ccccc3)c2n1 | > 160 | 25.6 (≈ 8.46 µg/mL) | – |
| Cc1cc(NCc2nccn2C)n2nc(C)c(-c3ccccc3)c2n1 | 5 (≈ 1.66 µg/mL) | 26.9 (≈ 8.94 µg/mL) | MIC99 [5]: 20 µM (≈ 6.65 µg/mL); MIC99 [7]: 37 µM (≈ 12.3 µg/mL); IC50 (CHO): < 9 µM |
| Cc1cc(NCc2ncc[nH]2)n2nc(C)c(-c3ccccc3)c2n1 | 37 (≈ 11.8 µg/mL) | < 5 | – |
| Cc1cc(NCc2c[nH]cn2)n2nc(C)c(-c3ccccc3)c2n1 | > 160 | 14.6 (≈ 4.65 µg/mL) | – |
| Cc1cccc(CNc2cc(C)nc3c(-c4ccccc4)c(C)nn23)n1 | > 160 | < 5 | – |
| Cc1cc(NCc2ccco2)n2nc(C)c(-c3ccccc3)c2n1 | > 160 | < 5 | – |
| Cc1cc(NCc2cccs2)n2nc(C)c(-c3ccccc3)c2n1 | > 160 | < 5 | – |
| Cc1cc(NCc2nccs2)n2nc(C)c(-c3ccccc3)c2n1 | > 160 | 108 (≈ 36.1 µg/mL) | – |
| Cc1cc(NCc2ccc3ccccc3n2)n2nc(C)c(-c3ccccc3)c2n1 | > 160 | < 5 | – |

| Compound | MIC99 [1] [µM] | solubility kinetic at 2 h [2] [µM] | other results |
| --- | --- | --- | --- |
| Cc1cc(NCc2ccccn2)n2nc(C)c(-c3ccc(F)cc3)c2n1 | 5 (≈ 1.74 µg/mL) | < 5 | – |
| COc1ccc(-c2c(C)nn3c(NCc4ccccn4)cc(C)nc23)cc1 | 20 (≈ 7.19 µg/mL) | < 5 | – |
| COc1ccc(-c2cnn3c(NCc4ccccn4)cc(C)nc23)cc1 | 20 (≈ 6.91 µg/mL) | < 5 | – |
| Cc1ccc(-c2cnn3c(NCc4ccccn4)cc(C)nc23)cc1 | 5 (≈ 1.65 µg/mL) | < 5 | – |
| Cc1cc(NCc2ccccn2)n2ncc(-c3ccc(N(C)C)cc3)c2n1 | 20 (≈ 7.17 µg/mL) | < 5 | – |
| Cc1cc(NCc2ccccn2)n2ncc(-c3ccc(C(F)(F)F)cc3)c2n1 | > 160 | < 5 | – |
| Cc1cc(NCc2ccccn2)n2ncc(-c3ccc(C#N)cc3)c2n1 | > 160 | < 5 | – |
| Cc1cc(NCc2ccccn2)n2ncc(-c3cccc(Cl)c3)c2n1 | 2.5 (≈ 0.875 µg/mL) | < 5 | MIC99 [5]: > 160 µM; MIC99 [7]: > 160 µM; IC50 (CHO): 3.78 µM |
| Cc1cc(NCc2ccccn2)n2ncc(-c3cccc(F)c3)c2n1 | 2.5 (≈ 0.833 µg/mL) | 5 (≈ 1.67 µg/mL) | – |
| Cc1cc(NCc2ccccn2)n2ncc(-c3ccccc3F)c2n1 | 2.5 (≈ 0.833 µg/mL) | 5 (≈ 1.67 µg/mL) | MIC99 [5]: > 160 µM; MIC99 [7]: > 160 µM; IC50 (CHO): 5.45 µM |
| Cc1cc(NCc2ccccn2)n2ncc(-c3ccc(F)c(Cl)c3)c2n1 | 1.25 (≈ 0.46 µg/mL) | < 5 | MIC99 [5]: > 160 µM; MIC99 [7]: > 160 µM; IC50 (CHO): 20 µM |
| Cc1cc(NCc2ccccn2)n2ncc(-c3ccccc3C)c2n1 | 1.25 (≈ 0.412 µg/mL) | < 5 | – |
| Cc1cc(NCc2ccccn2)n2ncc(-c3c(C)cccc3C)c2n1 | > 160 | < 5 | – |
| Cc1cc(NCc2ccccn2)n2ncc(-c3ccc(F)cc3F)c2n1 | > 160 | < 5 | – |
| Cc1cc(NCc2ccccn2)n2ncc(-c3cc(F)c(F)c(F)c3)c2n1 | 2.5 (≈ 0.923 µg/mL) | < 5 | – |
| Cc1cc(NCc2ccccn2)n2ncc(-c3ccco3)c2n1 | 40 (≈ 12.2 µg/mL) | 48.8 (≈ 14.9 µg/mL) | – |
| Cc1cc(NCc2ccccn2)n2ncc(-c3ccsc3)c2n1 | 20 (≈ 6.43 µg/mL) | 9 (≈ 2.89 µg/mL) | – |
| Cc1cc(NCc2ccccn2)n2ncc(-c3ccncc3)c2n1 | > 160 | 161 (≈ 51 µg/mL) | – |
| Cc1cc(NCc2ccccn2)n2ncc(-c3ccn(C)n3)c2n1 | > 160 | 188 (≈ 60 µg/mL) | – |
| Cc1cc(NCc2ccccn2)n2ncc(-c3ccc(C(=O)Nc4ccccc4)cc3)c2n1 | > 160 | 5 (≈ 2.17 µg/mL) | – |
| Cc1cc(NCc2ccccn2)n2nc(C)c(Nc3ccccc3)c2n1 | 40 (≈ 13.8 µg/mL) | 7.8 (≈ 2.69 µg/mL) | – |

| Compound | MIC99 [1] [µM] | solubility kinetic at 2 h [2] [µM] | other results |
| --- | --- | --- | --- |
| Cc1cc(NCc2ccccn2)n2ncc(C3=CCC(F)(F)CC3)c2n1 | 5 (≈ 1.78 µg/mL) | 5 (≈ 1.78 µg/mL) | – |
| Cc1cc(NCc2ccccn2)n2ncc(C3=CCOCC3)c2n1 | 80 (≈ 25.7 µg/mL) | 171 (≈ 54.9 µg/mL) | – |
| Cc1cc(NCc2ccccn2)n2ncc(Br)c2n1 | > 160 | 89.3 (≈ 28.4 µg/mL) | – |
| Cc1cc(NCc2ccccn2)n2nc(C)cc2n1 | 5 (≈ 1.27 µg/mL) | > 200 | – |
| Cc1cc(NCC2CCCCN2)n2nc(C)c(-c3ccccc3)c2n1 (centres undefined) | > 160 | 189 (≈ 63.3 µg/mL) | remaining at 0.5 h, 0.1 µM [3]: 14%; remaining at 0.5 h, 0.1 µM [4]: 5.1%; remaining at 0.5 h, 0.1 µM [6]: 51.8% |
| CCN1CCCC1CNc1cc(C)nc2c(-c3ccccc3)c(C)nn12 (centres undefined) | > 160 | 172 (≈ 60.1 µg/mL) | remaining at 0.5 h, 0.1 µM [6]: 54% |
| Cc1cc(NCc2ccc(F)cn2)n2nc(C)c(-c3ccccc3)c2n1 | 5 (≈ 1.74 µg/mL) | < 5 | remaining at 0.5 h, 0.1 µM [3]: 5.3%; remaining at 0.5 h, 0.1 µM [4]: 45.5%; MIC99 [5]: > 160 µM; remaining at 0.5 h, 0.1 µM [6]: 31.4%; MIC99 [7]: 20 µM (≈ 6.95 µg/mL); IC50 (CHO): 22 µM |
| Cc1cc(NCc2cccc[n+]2[O-])n2ncc(-c3ccccc3)c2n1 | > 160 | 159 (≈ 52.7 µg/mL) | remaining at 0.5 h, 0.1 µM [3]: 12.3%; remaining at 0.5 h, 0.1 µM [4]: 61.2%; remaining at 0.5 h, 0.1 µM [6]: 99.7% |
| Cc1cc(NCc2nccn2C)n2nc(C)cc2n1 | > 160 | 182 (≈ 46.7 µg/mL) | remaining at 0.5 h, 0.1 µM [3]: 85.1%; remaining at 0.5 h, 0.1 µM [4]: 80.6%; remaining at 0.5 h, 0.1 µM [6]: 100% |
| Cc1cc(NCc2ncnn2C)n2nc(C)c(-c3ccccc3)c2n1 | > 160 | 185 (≈ 61.6 µg/mL) | remaining at 0.5 h, 0.1 µM [3]: 18.9%; remaining at 0.5 h, 0.1 µM [4]: 68.8%; remaining at 0.5 h, 0.1 µM [6]: 99.5% |
| Cc1cc(NCc2ccccn2)n2ncc(-c3ccc(O)cc3)c2n1 | > 160 | 10.9 (≈ 3.61 µg/mL) | remaining at 0.5 h, 0.1 µM [3]: 41.4%; remaining at 0.5 h, 0.1 µM [4]: 60.1%; remaining at 0.5 h, 0.1 µM [6]: 99.3% |
| Cc1cc(NCc2ccccn2)n2ncc(-c3cccc(N)c3)c2n1 | > 160 | 160 (≈ 52.8 µg/mL) | remaining at 0.5 h, 0.1 µM [3]: 55.1%; remaining at 0.5 h, 0.1 µM [4]: 56.8%; remaining at 0.5 h, 0.1 µM [6]: 89.5% |
| Cc1cc(NCc2ccccn2)n2ncc(-c3cccc(N(C)C)c3)c2n1 | 80 (≈ 28.7 µg/mL) | 94.6 (≈ 33.9 µg/mL) | remaining at 0.5 h, 0.1 µM [3]: 7.9%; remaining at 0.5 h, 0.1 µM [4]: 4.5%; remaining at 0.5 h, 0.1 µM [6]: 33.7% |
| Cc1cc(NCc2ccccn2)n2ncc(-c3cncnc3)c2n1 | 160 (≈ 50.8 µg/mL) | 111 (≈ 35.2 µg/mL) | – |
| Cc1cc(NCc2ccccn2)n2ncc(-c3ccc(C(=O)NCCN(C)C)cc3)c2n1 | > 160 | 189 (≈ 81.3 µg/mL) | – |
| Cc1cc(NCc2ccccn2)n2nc(C)c(-c3cccnc3F)c2n1 | 10 (≈ 3.48 µg/mL) | < 5 | remaining at 0.5 h, 0.1 µM [3]: 100%; remaining at 0.5 h, 0.1 µM [4]: 96.5%; remaining at 0.5 h, 0.1 µM [6]: 100% |
| Cc1cc(NCc2ccccn2)n2ncc(-c3ccc(F)cc3C)c2n1 | > 160 | 42.3 (≈ 14.7 µg/mL) | – |
| NC[C@H]1O[C@H](O[C@H]2[C@H](O)[C@@H](O[C@H]3O[C@H](CO)[C@@H](O)[C@H](N)[C@H]3O)[C@H](N)C[C@@H]2N)[C@H](O)[C@@H](O)[C@@H]1O [KANAMYCIN] | 6.45 (≈ 3.13 µg/mL) | – | – |
| CO[C@H]1/C=C/O[C@@]2(C)Oc3c(C)c(O)c4c(O)c(c(/C=N/N5CCN(C)CC5)c(O)c4c3C2=O)NC(=O)/C(C)=C\C=C\[C@H](C)[C@H](O)[C@@H](C)[C@@H](O)[C@@H](C)[C@H](OC(C)=O)[C@@H]1C [RIFAMPIN] | 0.012 (≈ 0.00988 µg/mL) | – | – |

Reference: ChEMBL document CHEMBL3627697, “Aminopyrazolo[1,5-a]pyrimidines as potential inhibitors of Mycobacterium tuberculosis: Structure activity relationships and ADME characterization” (Bioorg Med Chem, 2015)
